Reference: patent publication US5763396A, “Method of treating or preventing type 1 diabetes by oral administration of insulin” (AutoImmune Inc., priority 1995, dated 1998)
Values joined by “and” are separate entries in the source; they are usually repeats but may differ in a detail not shown here. Equal values may be shown once. “Also recorded” adds a separate entry of the source.

What was measured:
Type in all cases: in vivo
NOD mice [1] = assay: Effect of feeding porcine insulin on spontaneous diabetes in NOD mice (Example 1)
From the text: NOD (non-obese diabetic mice) were obtained from Taconic Laboratories (Germantown, Mass.) at 4 weeks of age. There were a total of 30 animals in each of the groups mentioned below at the beginning of the experiment. At […] of age, animals were orally administered Porcine insulin (Novo Laboratories, Danbury, Conn.). Each animal received two treatments orally twice a week until 9 weeks of age. The mice were fed either saline (control) or 10 micrograms, 100 micrograms, or 1 milligram of Porcine insulin. The animals were fed (gavaged) with an 18 gauge ball-point needle (Popper and Sons, Inc., New Hyde Park, N.Y.). Beginning at 10 weeks the animals were then fed once a week for a total of 33 weeks. Beginning at 12 weeks the urine was tested weekly for the presence of glucose using Glucosuria test tape (Eli Lilly, Indianapolis, Ind.). If an animal tested 3+ or higher on the glucose urine test, a serum sample was taken and blood glucose measured using a glucose analyzer (Beckman). If the blood glucose was 220 or higher, the animals were classified as diabetic and then sacrificed.

NOD mice [2] = assay: Glucose post oral insulin in fasting 7 week NOD mice (Example 2); conditions: for blood glucose over the next 24 hours / blood glucose change after feeding (protein load) / drop in blood glucose after feeding: 1 mg oral; for blood glucose over the next 24 hours: animals in fasting state
Protocol: In order to determine whether any endocrinologic (i.e. direct lowering of blood sugar) effects occurred following the feeding of insulin, 7 week old NOD mice (5 mice per group) were fed 1 mg of porcine insulin or 1 mg of myelin basic protein (obtained from Pel Freez, Rogers, Ark.) as a control protein. Blood glucose was then measured over the next 24 hour period. As a positive control, a separate group of animals were injected subcutaneously with 20 micrograms of Porcine insulin. All animals were kept in the fasting state.

NOD mice [3] = assay: Insulitis in insulin-fed NOD mice (preliminary experiments); conditions: fed 1 mg insulin vs PBS-fed NOD mice, data not shown
From the text: Therefore, oral administration of insulin to NOD mice appeared to be affecting the infiltration of immune system cells into the pancreas and thus halting disease progression by preserving beta cell function.

NOD mice [4] = assay: Effect of aerosol administration of insulin on diabetes in NOD mice (Example 4); conditions: aerosol by nebulizer, 0 to 1 mg
Protocol: Insulin (0 to 1 mg as in Examples 1 and 2) will be administered to NOD mice as described above in Examples 1 and 2 except in aerosol form by nebulizer.

NOD mice [5] = assay: Treatment of initial stages of diabetes in NOD mice (Example 5); conditions: oral and aerosol, 0 to 1 mg, hyperglycemic NOD mice
Protocol: Insulin (0 to 1 mg as in Examples 1 and 2) will be administered to NOD mice which are suffering from hyperglycemia in an oral and aerosol form. The treatments will begin by weeks 12-20 of age, by which the serum glucose levels are at hyperglycemic concentrations in a certain percentage of animals prior to onset of diabetes.

[6] = 20 micrograms porcine insulin subcutaneously, fasting 7 week NOD mice

| Substance | development of diabetes (NOD mice [1]; NOD mice fed 1 mg porcine insulin orally, diabetic = blood glucose 220 or higher) | development of diabetes (NOD mice [1]; NOD mice fed 10 micrograms porcine insulin orally) | development of diabetes (NOD mice [1]; NOD mice fed 100 micrograms porcine insulin orally) | incidence of diabetes (NOD mice [1]; all doses of orally administered insulin tested (10 micrograms to 1 mg)) | blood sugar on 10 representative animals (NOD mice [1]; fed 1 mg insulin, none diabetic, individual animals) | blood sugar in animals which developed diabetes (NOD mice [1]; fed 10 micrograms of insulin, individual animals) | blood sugar in animals that became diabetic (NOD mice [1]; fed 100 micrograms of insulin, individual animals) | endocrinologic (metabolic) effects (NOD mice [2]; 1 mg oral insulin, NOD mice) | blood glucose over the next 24 hours (NOD mice [2]) | blood glucose change after feeding (protein load) (NOD mice [2]; fasting 7 week NOD mice) | drop in blood glucose after feeding (NOD mice [2]; fasting 7 week NOD mice) | decrease in the glucose level (NOD mice [2]; [6]) | period over which glucose decrease persisted (NOD mice [2]; [6]) | inflammatory immune system cells surrounding the pancreas (insulitis) (NOD mice [3]) | prevention of manifestation of symptoms (hyperglycemia) of Type 1 diabetes (NOD mice [4]) | beta cell function (NOD mice [5]) | serum glucose concentrations (NOD mice [5]) |
| --- | --- | --- | --- | --- | --- | --- | --- | --- | --- | --- | --- | --- | --- | --- | --- | --- | --- |
| Porcine insulin | none of the mice went on to develop diabetes; also recorded: no diabetes developed; also recorded: None of the animals developed diabetes | diabetes developed | diabetes developed | lower incidence of diabetes; also recorded: reduced the numbers of these mice which subsequently went on to develop diabetes | 174 mg/dl and 128 mg/dl and 125 mg/dl (2×) and 145 mg/dl and 123 mg/dl and 136 mg/dl and 155 mg/dl and 115 mg/dl and 130 mg/dl | 330 mg/dL and 420 mg/dL and 315 mg/dL and 459 mg/dL and 520 mg/dL and 487 mg/dL | 500 mg/dL and 290 mg/dL and 600 mg/dL and 450 mg/dL | not a metabolic effect; also recorded: no endocrinologic (metabolic) effects | gradual decrease in blood glucose | increase in blood glucose | no drop in the blood glucose | approximately 80 mg % | 4 h | fewer inflammatory immune system cells surrounding the pancreas | effective in preventing the manifestation of symptoms | preservation of beta cell function | reduction in serum glucose concentrations to near normal levels |
| myelin basic protein |  |  |  |  |  |  |  |  | gradual decrease in blood glucose | increase in blood glucose | no drop in the blood glucose |  |  |  |  |  |  |
